Here are results for 1 compound from PMC12406255, “Engineering Peptide Modulators for T‑Cell Migration by Structural Scaffold Matching” (Journal of Medicinal Chemistry, 2025).

The structures appear in SMILES notation. Positions of bridges follow the written chain, without caps; N, C: chain ends. Non-standard residues stand in square brackets, D forms with d. Residues, ends and D or L forms follow the SMILES beside them. Nle = CCCC[C@H](N)C(=O)O

The test concerns Th1 lymphocytes (CD3+, CD4+, CXCR3+, CCR6-) of MS patients. Kind of test: Transwell migration assay with PBMC of MS patients, Th1 cells. The format is cell-based, human. Particulars: PBMC of treatment-naive MS patients; mean ± SD, 4 independent measurements; p = 0.048. The method, then:
5 Activity of the novel VhTI-pep 2 and pepitem on patient lymphocytes. PPBMCs were isolated from the blood of MS patients with a very recent disease flare receiving no immunosuppressive or immunomodulatory treatment in the past. The effect of the linear pepitem and VhTI-pep 2 was tested for the T-cell populations (A) CD3^+, (B) Th1, (C) CD4^+, (D) memory CD4^+, (E) CD8^+, and (F) memory CD8^+ cells. Data are shown as mean ± SD for 4 independent measurements. Statistical analysis was performed on the level of total counted cells using repeated measures one-way ANOVA with Dunnett’s post hoc test. Statistical significance is indicated as n.s. (not significant), * p < 0.05; ** p < 0.01; *** p < 0.001.
Human microvascular endothelial cells (HMEC-1 cells, Cytion, Eppelheim, Germany) were cultured in MCDB-131 medium (with 2.2 g/L sodium bicarbonate, without L-glutamine, PAN-Biotech Aidenbach, Germany) supplemented with 10% fetal bovine serum (FBS, Capricorn Scientific, Ebsdorfergrund, Germany), 100 units/ml penicillin-streptomycin (Sigma-Aldrich) 10 ng/mL epidermal growth factor (BioLegend, San Diego, US), 1 μg/mL hydrocortisone (Sigma-Aldrich), and 10 mM L-glutamine (Sigma-Aldrich). For experiments, the cells were used between passage numbers 4–9. […]

For the compound `CCCC[C@@H]1NC(=O)[C@H](C(C)C)NC(=O)[C@H](CCCCN)NC(=O)[C@@H](NC(=O)[C@H](CCC(N)=O)NC(=O)[C@H](CCC(=O)O)NC(C)=O)CSSC[C@@H](C(=O)N[C@@H](CCC(=O)O)C(=O)N[C@@H](CCCCN)C(N)=O)NC(=O)[C@H](CC(N)=O)NC(=O)[C@H](CC(=O)O)NC(=O)[C@H](CC(C)C)NC(=O)[C@@H]2CSSC[C@H](NC1=O)C(=O)N[C@@H](Cc1ccc(O)cc1)C(=O)N[C@@H](C)C(=O)N[C@@H](CCC(N)=O)C(=O)NCC(=O)N[C@@H](C)C(=O)N[C@@H](CCC(=O)O)C(=O)N[C@@H](CC(C)C)C(=O)N1CCC[C@H]1C(=O)N[C@@H](CCC(=O)O)C(=O)N[C@@H](CC(C)C)C(=O)N[C@@H](CC(C)C)C(=O)N[C@@H](CCCNC(=N)N)C(=O)N[C@@H](CCCNC(=N)N)C(=O)N2` [VhTI-pep 2] (Ac-EQCKV[Nle]CYAQGAELPELLRRCLDNCEK-NH2; disulfide 3-25, 7-21), the “inhibition of migration of Th1 lymphocytes” value turned out to be 34.3 ± 11.4%.
